Laboratory results published in US9611221B2, “Histone demethylase inhibitors” (CELGENE QUANTICEL RESEARCH, INC., priority 2012, dated 2017).
pIC50: −log10 of the molar value.

Assays:
Type in all cases: biochemical
[1] = target: Jarid1A (Homo sapiens (Human), UniProt P29375); test: Jarid1A in vitro enzyme inhibition assay (TR-FRET); conditions: 1 nM Jarid1A, 300 nM H3K4me3-biotin peptide, 2 μM alpha-ketoglutaric acid
From the text: (§1) This assay determines the ability of a test compound to inhibit Jarid1A, Jarid1B, and JMJD2C demethylase activity. Baculovirus expressed Jarid1A (GenBank Accession #NM_001042603, AA1-1090) was purchased from BPS Bioscience (Cat#50110). Baculovirus expressed Jarid1B (GenBank Accession #NM_006618, AA 2-751) was purchased from BPS Bioscience (Cat #50121) or custom made by MolecularThroughput. Baculovirus expressed JMJD2C (GenBank Accession #BC143571, AA 2-372) was purchased from BPS Bioscience (Cat#50105).
(§2) The enzymatic assay of Jarid1A activity is based upon Time Resolved-Fluorescence Resonance Energy Transfer (TR-FRET) detection. The ability of test compounds to inhibit the activity of Jarid1A was determined in 384-well plate format under the following reaction conditions: 1 nM Jarid1A, 300 nM H3K4me3-biotin labeled peptide (Anaspec cat #64357), 2 μM alpha-ketoglutaric acid in assay buffer of 50 mM HEPES, pH7.3, 0.005% Brij35, 0.5 mM TCEP, 0.2 mg/ml BSA, 50 μM sodium L-ascorbate, and 2 μM ammonium iron(II) sulfate. Reaction product was determined quantitatively by TR-FRET after the addition of detection reagent Phycolink Streptavidin-allophycocyanin (Prozyme) and Europium-anti-mono- or di-methylated histone H3 lysine 4 (H3K4me1-2) antibody (PerkinElmer) in the presence of 5 mM EDTA in LANCE detection buffer (PerkinElmer) at a final concentration of 25 nM and 1 nM, respectively.
(§3) The reaction mixture was incubated at room temperature for 30 minutes, and terminated by the addition of 6 μl of 5 mM EDTA in LANCE detection buffer containing 50 nM Phycolink Streptavidin-allophycocyanin and 2 nM Europium-anti-H3K4me1-2 antibody. Plates were read by EnVisionMultilabel Reader in TR-FRET mode (excitation at 320 nm, emission at 615 nm and 665 nm) after 1 hour incubation at room temperature. A ratio was calculated (665/615) for each well and fitted to determine inhibition constant (IC50).

[2] = target: Jarid1B (Homo sapiens (Human), UniProt Q9UGL1); test: Jarid1B in vitro enzyme inhibition assay (TR-FRET); conditions: 0.8 nM Jarid1B, 300 nM H3K4me3-biotin peptide, 2 μM alpha-ketoglutaric acid
Sequence of Jarid1B (Q9UGL1 2-751): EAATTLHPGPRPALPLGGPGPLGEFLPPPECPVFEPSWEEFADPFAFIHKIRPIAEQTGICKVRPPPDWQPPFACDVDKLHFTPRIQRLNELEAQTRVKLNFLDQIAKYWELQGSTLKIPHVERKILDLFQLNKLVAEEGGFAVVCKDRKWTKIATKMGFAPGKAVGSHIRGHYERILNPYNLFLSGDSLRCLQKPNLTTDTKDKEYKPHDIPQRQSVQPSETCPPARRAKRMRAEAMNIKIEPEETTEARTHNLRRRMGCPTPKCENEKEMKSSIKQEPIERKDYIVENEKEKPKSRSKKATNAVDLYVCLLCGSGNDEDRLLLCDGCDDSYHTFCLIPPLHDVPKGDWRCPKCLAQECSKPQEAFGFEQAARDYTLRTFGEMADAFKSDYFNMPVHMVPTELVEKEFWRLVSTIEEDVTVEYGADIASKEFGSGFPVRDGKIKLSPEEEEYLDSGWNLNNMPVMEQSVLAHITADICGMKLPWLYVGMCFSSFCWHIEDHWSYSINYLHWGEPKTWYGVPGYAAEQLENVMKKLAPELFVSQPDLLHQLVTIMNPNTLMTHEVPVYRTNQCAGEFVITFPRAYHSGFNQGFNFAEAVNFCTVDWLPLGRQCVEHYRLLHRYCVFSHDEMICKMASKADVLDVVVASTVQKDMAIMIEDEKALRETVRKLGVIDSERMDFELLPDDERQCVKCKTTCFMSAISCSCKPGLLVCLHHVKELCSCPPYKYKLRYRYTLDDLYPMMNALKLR
From the text: as §1
as §2, with “The” for “The enzymatic assay of Jarid1A activity is based upon Time Resolved-Fluorescence Resonance Energy Transfer (TR-FRET) detection. The”, “of Jarid1B” for “of Jarid1A”, “conditions: 0.8” for “conditions: 1”, “nM Jarid1B,” for “nM Jarid1A,”
as §3

[3] = target: JMJD2C (Homo sapiens (Human), UniProt Q9H3R0); test: JMJD2C in vitro enzyme inhibition assay (TR-FRET); conditions: 0.3 nM JMJD2C, 300 nM H3K9me3-biotin peptide, 2 μM alpha-ketoglutaric acid
Sequence of JMJD2C (Q9H3R0 2-372): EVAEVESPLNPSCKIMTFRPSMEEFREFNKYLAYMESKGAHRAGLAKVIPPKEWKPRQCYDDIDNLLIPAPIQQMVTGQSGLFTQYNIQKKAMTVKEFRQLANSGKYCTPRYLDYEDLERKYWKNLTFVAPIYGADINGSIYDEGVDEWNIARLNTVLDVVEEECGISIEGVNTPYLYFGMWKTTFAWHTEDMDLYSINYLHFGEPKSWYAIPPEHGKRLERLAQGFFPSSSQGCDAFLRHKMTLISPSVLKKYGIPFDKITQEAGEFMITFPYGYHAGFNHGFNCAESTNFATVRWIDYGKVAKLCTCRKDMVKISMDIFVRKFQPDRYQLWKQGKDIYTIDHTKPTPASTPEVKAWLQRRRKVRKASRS
From the text: as §1
The ability of test compounds to inhibit the activity of JMJD2C was determined in 384-well plate format under the following reaction conditions: 0.3 nM JMJD2C, 300 nM H3K9me3-biotin labeled peptide (Anaspec cat #64360), 2 μM alpha-ketoglutaric acid in assay buffer of 50 mM HEPES, pH7.3, 0.005% Brij35, 0.5 mM TCEP, 0.2 mg/ml BSA, 50 μM sodium L-ascorbate, and 2 μM ammonium iron(II) sulfate. Reaction product was determined quantitatively by TR-FRET after the addition of detection reagent Phycolink Streptavidin-allophycocyanin (Prozyme) and Europium-anti-di-methylated histone H3 lysine 9 (H3K9me2) antibody (PerkinElmer) in the presence of 5 mM EDTA in LANCE detection buffer (PerkinElmer) at a final concentration of 50 nM and 1 nM, respectively.
as §3, with “containing 100” for “containing 50”, “nM Europium-anti-H3K9me2” for “nM Europium-anti-H3K4me1-2”

Sequence of Jarid1A (P29375 1-1090): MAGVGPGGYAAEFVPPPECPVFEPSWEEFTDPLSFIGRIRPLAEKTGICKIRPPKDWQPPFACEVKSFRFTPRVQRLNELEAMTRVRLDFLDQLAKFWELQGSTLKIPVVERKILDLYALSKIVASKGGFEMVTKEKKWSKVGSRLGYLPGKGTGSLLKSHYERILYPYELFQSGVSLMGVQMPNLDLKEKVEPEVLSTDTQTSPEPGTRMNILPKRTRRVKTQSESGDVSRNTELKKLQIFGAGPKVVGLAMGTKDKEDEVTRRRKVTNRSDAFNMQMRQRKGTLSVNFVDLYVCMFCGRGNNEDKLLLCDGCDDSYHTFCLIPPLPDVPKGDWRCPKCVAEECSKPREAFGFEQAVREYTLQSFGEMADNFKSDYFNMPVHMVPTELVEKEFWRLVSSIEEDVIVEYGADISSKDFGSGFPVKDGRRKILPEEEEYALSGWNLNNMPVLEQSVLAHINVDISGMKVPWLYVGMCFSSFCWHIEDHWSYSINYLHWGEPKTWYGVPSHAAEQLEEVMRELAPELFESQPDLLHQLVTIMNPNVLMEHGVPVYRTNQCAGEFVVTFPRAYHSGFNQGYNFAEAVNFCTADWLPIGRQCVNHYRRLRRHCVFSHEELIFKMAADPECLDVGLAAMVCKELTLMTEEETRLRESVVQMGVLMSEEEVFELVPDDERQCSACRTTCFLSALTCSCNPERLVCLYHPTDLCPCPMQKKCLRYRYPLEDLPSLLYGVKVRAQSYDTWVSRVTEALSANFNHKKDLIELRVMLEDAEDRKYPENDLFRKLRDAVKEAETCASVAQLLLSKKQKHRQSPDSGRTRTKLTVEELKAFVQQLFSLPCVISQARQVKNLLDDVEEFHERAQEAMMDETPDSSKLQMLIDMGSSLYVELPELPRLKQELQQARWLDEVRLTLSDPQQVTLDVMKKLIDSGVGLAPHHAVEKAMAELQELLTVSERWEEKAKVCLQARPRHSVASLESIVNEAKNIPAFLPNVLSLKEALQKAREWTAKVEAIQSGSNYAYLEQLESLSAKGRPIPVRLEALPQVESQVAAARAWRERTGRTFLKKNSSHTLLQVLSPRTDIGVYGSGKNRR

| SMILES | pIC50 [1] | pIC50 [2] | pIC50 [3] |
| --- | --- | --- | --- |
| O=C(O)c1ccnnc1NCc1ccccc1 [Example 1, 3-(benzylamino)pyridazine-4-carboxylic acid] | ≥ 7.00 | 6.00 to 7.00 | ≥ 7.00 |
| O=C(O)c1ccncc1NCc1ccc(F)cc1 [Example 4, 3-[(4-fluorobenzyl)amino]pyridine-4-carboxylic acid] | ≥ 7.00 | ≥ 7.00 | ≥ 7.00 |
| N#Cc1ccc(CNc2cnccc2C(=O)O)cc1 [Example 5, 3-[(4-cyanobenzyl)amino]pyridine-4-carboxylic acid] | ≥ 7.00 | ≥ 7.00 | ≥ 7.00 |
| COc1ccc(CNc2cnccc2C(=O)O)cc1 [Example 7, 3-[(4-methoxybenzyl)amino]pyridine-4-carboxylic acid] |  | ≥ 7.00 | ≥ 7.00 |
| O=C(O)c1ccncc1NCc1ccc(C(F)(F)F)cc1 [Example 8, 3-{[4-(trifluoromethyl)benzyl]amino}pyridine-4-carboxylic acid] | ≥ 7.00 | ≥ 7.00 | ≥ 7.00 |
| O=C(O)c1ccncc1NCc1ccc(-c2ccccc2)cc1 [Example 9, 3-[(biphenyl-4-ylmethyl)amino]pyridine-4-carboxylic acid] |  | 6.00 to 7.00 | 5.00 to 6.00 |
| O=C(O)c1ccncc1NCc1ccc(Cl)cc1 [Example 10, 3-[(4-chlorobenzyl)amino]pyridine-4-carboxylic acid] |  | ≥ 7.00 | ≥ 7.00 |
| O=C(O)c1ccncc1NCc1ccc(Oc2ccccc2)cc1 [Example 12, 3-[(4-phenoxybenzyl)amino]pyridine-4-carboxylic acid] |  | ≥ 7.00 | 6.00 to 7.00 |
| CN(C)Cc1ccccc1CNc1cnccc1C(=O)O [Example 13, 3-({2-[(dimethylamino)methyl]benzyl}amino)pyridine-4-carboxylic acid] |  | ≥ 7.00 | ≥ 7.00 |
| O=C(O)c1ccncc1NCc1ccc(Cl)c(Cl)c1 [Example 14] |  | ≥ 7.00 | ≥ 7.00 |
| Cc1cc(Cl)ccc1CNc1cnccc1C(=O)O [Example 15, 3-[(4-chloro-2-methylbenzyl)amino]pyridine-4-carboxylic acid] |  | ≥ 7.00 | ≥ 7.00 |
| COc1ccc(CNc2cnccc2C(=O)O)c(OC)c1 [Example 16, 3-[(2,4-dimethoxyoxybenzyl)amino]pyridine-4-carboxylic acid] |  | ≥ 7.00 | 6.00 to 7.00 |
| O=C(O)c1ccncc1NCc1ccccc1O [Example 17, 3-[(2-hydroxybenzyl)amino]pyridine-4-carboxylic acid] |  | ≥ 7.00 | ≥ 7.00 |
| O=C(O)c1ccncc1NCc1ccc(Cl)cc1Cl [Example 18, 3-[(2,4-dichlorobenzyl)amino]pyridine-4-carboxylic acid] | ≥ 7.00 | ≥ 7.00 | ≥ 7.00 |
| O=C(O)c1ccncc1NCc1ccccc1C1CC1 [Example 19, 3-[(2-cyclopropylbenzyl)amino]pyridine-4-carboxylic acid] |  | ≥ 7.00 | ≥ 7.00 |
| COc1cc(Cl)ccc1CNc1cnccc1C(=O)O [Example 20, 3-[(4-chloro-2-methoxybenzyl)amino]pyridine-4-carboxylic acid] | ≥ 7.00 | ≥ 7.00 | 6.00 to 7.00 |

| SMILES | pIC50 [1] | pIC50 [2] | pIC50 [3] |
| --- | --- | --- | --- |
| O=C(O)c1ccncc1NCc1ccc(Cl)cc1O [Example 21, 3-[(4-chloro-2-hydroxybenzyl)amino]pyridine-4-carboxylic acid] | ≥ 7.00 | ≥ 7.00 | ≥ 7.00 |
| Nc1ccccc1CNc1cnccc1C(=O)O [Example 22, 3-[(2-aminobenzyl)amino]pyridine-4-carboxylic acid] | ≥ 7.00 | ≥ 7.00 | ≥ 7.00 |
| O=C(O)c1ccncc1NCc1ccc(Br)cc1 [Example 23, 3-[(4-bromobenzyl)amino]pyridine-4-carboxylic acid] | ≥ 7.00 | ≥ 7.00 | ≥ 7.00 |
| Cc1ccc(CNc2cnccc2C(=O)O)cc1 [Example 24, 3-[(4-methylbenzyl)amino]pyridine-4-carboxylic acid] | ≥ 7.00 | ≥ 7.00 | ≥ 7.00 |
| O=C(O)c1ccncc1NCc1ccc(C2CC2)cc1 [Example 25, 3-[(4-cyclopropylbenzyl)amino]pyridine-4-carboxylic acid] | ≥ 7.00 | ≥ 7.00 | 6.00 to 7.00 |
| O=C(O)c1ccncc1NCc1ccc(Cl)cc1C1CC1 [Example 26, 3-[(4-chloro-2-cyclopropylbenzyl)amino]pyridine-4-carboxylic acid] | ≥ 7.00 | ≥ 7.00 | 6.00 to 7.00 |
| O=C(O)c1ccncc1NCc1ccc(C(F)(F)F)cc1C1CC1 [Example 27, 3-{[2-cyclopropyl-4-(trifluoromethl)benzyl]amino}pyridine-4-carboxylic acid] | ≥ 7.00 | ≥ 7.00 | 6.00 to 7.00 |
| O=C(O)c1ccncc1NCc1cccc2ccccc12 [Example 28, 3-[(naphthalene-1-ylmethyl)amino]pyridine-4-carboxylic acid] | ≥ 7.00 | ≥ 7.00 | ≥ 7.00 |
| O=C(O)c1ccncc1NCc1cccc2cc[nH]c12 [Example 29, 3-[(1H-indol-7-ylmethyl)amino]pyridine-4-carboxylic acid] | ≥ 7.00 | ≥ 7.00 | ≥ 7.00 |
| Cc1cccc(CNc2cnccc2C(=O)O)c1C1CC1 [Example 30, 3-[(2-cyclopropyl-3-methylbenzyl)amino]pyridine-4-carboxylic acid] | ≥ 7.00 | ≥ 7.00 | ≥ 7.00 |
| O=C(O)c1ccncc1NCc1cnccc1C1CC1 [Example 31, 3-{[(4-cyclopropylpyridin-3-yl)-methyl]amino}pyridine-4-carboxylic acid] | ≥ 7.00 | ≥ 7.00 | ≥ 7.00 |
| O=C(O)c1ccncc1NCc1cccc(C(F)(F)F)c1 [Example 32, 3-{[3-(trifluoromethyl)benzyl]amino}pyridine-4-carboxylic acid] | ≥ 7.00 | ≥ 7.00 | ≥ 7.00 |
| O=C(O)c1ccncc1NCc1ccccc1Oc1ccccc1 [Example 33, 3-[(2-phenoxybenzyl)amino]pyridine-4-carboxylic acid] | ≥ 7.00 | ≥ 7.00 | 6.00 to 7.00 |
| Cc1ccc(C2CC2)c(CNc2cnccc2C(=O)O)c1 [Example 34, 3-[(2-cyclopropyl-5-methylbenzyl)amino]pyridine-4-carboxylic acid] | ≥ 7.00 | ≥ 7.00 | 6.00 to 7.00 |
| O=C(O)c1ccncc1NCC1CCCc2ccc(F)cc21 (stereo not drawn) [Example 50, 3-{[(7-fluoro-1,2,3,4-tetrahydronaphthalen-1-yl)methyl]amino}pyridine-4-carboxylic acid] |  | ≥ 7.00 | 6.00 to 7.00 |
